Patent US8569264B2, “Antibacterial 4,5-substituted aminoglycoside analogs having multiple substituents” (ISIS Pharmaceuticals, Inc., priority 2005, dated 2013)
Converted amounts (≈) assume the structure as drawn. Where two headings read alike, the source gives them in different places. Marks after values point to notes of the source that are not given here.

Legend:
[1] = biological target: 18S ribosomal subunit RNA target; assay: Mass spectrometry based binding assay (FTICR), 18S
Method: (§1) In a typical experiment, 10 μL of an aqueous solution containing 100 mM ammonium acetate buffer, 2.5 or 5 μM of each RNA, and 33% isopropyl alcohol (to aid ion desolvation) was prepared with different concentrations of each ligand or ligand mixture Samples were introduced into the electrospray ionization source (negative ionization mode) at 1 μL/min and ions were stored for 1 sec in an RF-only hexapole following desolvation. The abundances were integrated from the respective ions for free RNA and the ligand-RNA complex. The primary (1:1 RNA:ligand) and secondary (1:2 complex, if observed). […] The peak ratios were measured at each concentration, then a plot of complex/free RNA versus concentration of ligand added was fitted to a second (or higher) order binding polynomial to determine the KD.

[2] = biological target: 16S ribosomal subunit RNA target; assay: Mass spectrometry based binding assay (FTICR), 16S
Method: as §1, with “[…],” for “2.5 or 5 μM of each RNA,”

[3] = tested on: E. coli S30 bacterial extract (pBestLuc firefly luciferase reporter); assay: Coupled bacterial transcription/translation assay; type: biochemical; conditions: read-out: Trans/Trans IC50
Method: The DNA template, pBestLuc™ (Promega), is a plasmid containing a reporter gene for firefly luciferase fused to a strong tac promoter and ribosome binding site. Messenger RNA from 1 μg pBestLuc is transcribed and translated in E. coli S30 bacterial extract in the presence or absence of test compound. Compounds are tested in a black 96 well microtiter plate with an assay volume of 35 μL. […] The transcription/translation reaction is incubated for 35 minutes at 37° C. followed by detection of functional luciferase with the addition of 30 μL LucLite™ (Packard). Light output is quantitated on a Packard TopCount.

E. Coli = assay: MIC, E. Coli; type: cell-based
Method: (§2) The MIC assays are carried out in 150 μL volume in duplicate in 96-well clear flat-bottom plates. The bacterial suspension from an overnight culture growth in appropriate medium is added to a solution of test compound in 4% DMSO in water. Final bacterial inoculum is approximately 10^5-10^6 CFU/well. […] Both ampicillin and tetracycline are used as antibiotic-positive controls in each screening assay for S. pyogenes, E. coli imp-, E. coli, S. aureus, E. faecalis, K. pneumoniae and P. vulgaris. Ciprofloxacin is used as an antibiotic positive control in each screening assay for P. aeruginosa.

S. Aureus = assay: MIC, S. Aureus; type: cell-based
Method: as §2

[4] = tested on: Staphylococcus aureus (Smith Strain ATCC 13709); assay: Staphylococcus aureus mouse protection assay; type: in vivo, mice; conditions: for # Dead mice/Total mice in group: Staph Conc. 10^6, 10% Mucin, the 14th table
Method: Two of the novel aminoglycoside compounds of the invention were examined for their anitbacterial activity against staphylococcus aureus. Mice were fed with autoclaved commercial food pellets and sterile water ad libitum. Animals were inoculated intraperitoneally with 0.5 mL/mouse of the indicated concentration of S. aureus (ATCC 13709) containing 10% mucin. There were 10 mice in each treatment group and compounds were administered subcutaneously one and 3 hour after infection. Compounds 15a (R4═R5═CH3) and 15j (R4═H, R5═(CH2)2C6H5)) were used at 75 mg/kg, 37.5 mg/kg, 18.8 mg/kg, 9.4 mg/kg, 4.7 mg/kg, 2.3 mg/kg, 1.17 mg/kg and 0.5 mg/kg. Amakacin, paromomycin and neomycin were used as the positive controls at concentrations of 2 mg/kg, 1 mg/kg and 0.5 mg/kg.
Test compound was administered as an aqueous buffer solution (phosphate buffered saline (PBS), pH=7.4).

[5] = FTICR mass spectrometry, Example 105
[6] = FTICR mass spectrometry, run at 100 nM RNA, Example 105

| SMILES | Kd [1, 5] [nM] | Kd [2, 6] [nM] | IC50 ([3]; Example 105) [nM] | MIC E. Coli. (E. Coli; Example 105) | MIC S. Aureus (S. Aureus; Example 105) | also measured |
| --- | --- | --- | --- | --- | --- | --- |
| NCC1OC(OC2C(CO)OC(OC3C(O)C(N)CC(N)C3OC3OC(CO)C(O)C(O)C3N)C2OCCNCc2cccnc2)C(N)C(O)C1O (stereo not shown) [Compound 9b] | 9400 | 900 | 100 | 6-12^b uM | 0.6-1^ uM | # Dead mice/Total mice in group ([4]; 0.1 mg/kg in PBS pH=7.4): 7/10 (10% Mucin); # Dead mice/Total mice in group ([4]; 0.5 mg/kg in PBS pH=7.4): 3/10 (10% Mucin); # Dead mice/Total mice in group ([4]; 1 mg/kg in PBS pH=7.4): 0/10 (10% Mucin); # Dead mice/Total mice in group ([4]; 2 mg/kg in PBS pH=7.4): 0/10 (10% Mucin); # Dead mice/Total mice in group ([4]; 4.5 mg/kg in PBS pH=7.4): 0/10 (10% Mucin); # Dead mice/Total mice in group ([4]; 9 mg/kg in PBS pH=7.4): 0/10 (10% Mucin); # Dead mice/Total mice in group ([4]; 18 mg/kg in PBS pH=7.4): 0/10 (10% Mucin); # Dead mice/Total mice in group ([4]; 37 mg/kg in PBS pH=7.4): 0/10 (10% Mucin); # Dead mice/Total mice in group ([4]; 75 mg/kg in PBS pH=7.4): 0/10 (10% Mucin); # Dead mice/Total mice in group ([4]; […] in PBS pH=7.4): 6/10 (10% Mucin); prevention of lethal bacterial infections in mice ([4]; result in words, summary of the 14th table): effective at preventing lethal bacterial infections in mice |
| NCC1OC(OC2C(CO)OC(OC3C(O)C(N)CC(N)C3OC3OC(CO)C(O)C(O)C3N)C2OCCNCCCc2ccccc2)C(N)C(O)C1O (stereo not shown) [Compound 9x] | 6300 | 1000 | 100 | 3 to 5 µM | 0.6 to 1.2 µM | – |
| NCCOC1C(OC2C(O)C(N)CC(N)C2OC2OC(CO)C(O)C(O)C2N)OC(CO)C1O (stereo not shown) [Compound 30a] | 58000 | 19000 | 200 | 6 to 12 µM | 12 to 25 µM | – |
| NCC1OC(OC2C(CO)OC(OC3C(O)C(N)CC(N)C3OC3OC(CO)C(O)C(O)C3N)C2OCCNCc2ccc(N)nc2)C(N)C(O)C1O (stereo not shown) [Compound 9s] | 500 | 100 | 200 | 3 to 6 µM | 0.3 to 0.6 µM | – |
| NCC1OC(OC2C(CO)OC(OC3C(O)C(N)CC(N)C3OC3OC(CO)C(O)C(O)C3N)C2OCCNc2cccnc2)C(N)C(O)C1O (stereo not shown) [Compound 9a] | 3500 | 600 | 100 | 3-6^b uM | 0.6-1^ uM | – |
| NCC1OC(OC2C(CO)OC(OC3C(O)C(N)CC(N)C3OC3OC(CO)C(O)C(O)C3N)C2OCCNC2CCCCC2)C(N)C(O)C1O (stereo not shown) [Compound 9n] | 400 | 100 | 200 | 3 to 6 µM | 3 to 5 µM | – |
| NCC1OC(OC2C(CO)OC(OC3C(O)C(N)CC(N)C3OC3OC(CNN)C(O)C(O)C3N)C2O)C(N)C(O)C1O (stereo not shown) [Compound 15i] | – | – | – | – | – | Kd ([1]; Example 108): 1700 nM; Kd ([2]; Example 108): 600 nM; IC50 ([3]; Example 108): 200 nM; MIC E. Coli. (E. Coli; Example 108): 12 to 25 µM; MIC S. Aureus (S. Aureus; Example 108): 3 to 6 µM |
| NCC1OC(OC2C(CO)OC(OC3C(O)C(N)CC(N)C3OC3OC(CO)C(O)C(O)C3N)C2OCCNCc2nc3ccccc3[nH]2)C(N)C(O)C1O (stereo not shown) [Compound 9e] | 11000 | 3900 | 200 | >100 µM | >100 µM | – |
| NCCCNCCOC1C(OC2C(O)C(N)CC(N)C2OC2OC(CO)C(O)C(O)C2N)OC(CO)C1O (stereo not shown) [Compound 30b] | 18000 | 9200 | 100 | 6 to 12 µM | 6 to 12 µM | – |
| NC[C@@H]1O[C@H](O[C@H]2[C@@H](OCCCCCc3ccccc3)[C@H](O[C@@H]3[C@@H](O)[C@H](N)C[C@H](N)[C@H]3O[C@H]3O[C@H](CO)[C@@H](O)[C@H](O)[C@H]3N)O[C@@H]2CO)[C@H](N)[C@@H](O)[C@@H]1O [Compound 14c] | 59000 | 40000 | 200 | – | – | MIC (E. Coli; Escherichia coli, Example 105): 10 to 20 µM (≈ 7.62 to 15.2 µg/mL); MIC E. Coli. (E. Coli; Example 107): 10 to 20 µM; MIC S. Aureus (S. Aureus; Example 107): 3 to 5 µM; MIC (S. Aureus; Staphylococcus aureus, Example 105): 3 to 5 µM (≈ 2.29 to 3.81 µg/mL) |
| NCC1OC(OC2C(CO)OC(OC3C(O)C(N)CC(N)C3OC3OC(CO)C(O)C(O)C3N)C2OCCNc2cnc3ccccc3c2)C(N)C(O)C1O (stereo not shown) [Compound 9m] | 900 | 100 | 100 | 12 to 25 µM | 1 to 2 µM | – |
| NCC1OC(OC2C(CO)OC(OC3C(O)C(N)CC(N)C3OC3OC(CO)C(O)C(O)C3N)C2OCCNc2ccccn2)C(N)C(O)C1O (stereo not shown) [Compound 9u] | 22000 | 5000 | 400 | 12 to 25 µM | 1 to 2 µM | – |
| CC(C)(C)OC(=O)NNCC1OC(OC2C(N)CC(N)C(O)C2OC2OC(CO)C(OC3OC(CN)C(O)C(O)C3N)C2O)C(N)C(O)C1O (stereo not shown) [Compound 15d] | – | – | – | – | – | Kd ([1]; Example 108): 1400 nM; Kd ([2]; Example 108): 10 nM; IC50 ([3]; Example 108): 300 nM; MIC E. Coli. (E. Coli; Example 108): 6 to 12 µM; MIC S. Aureus (S. Aureus; Example 108): 12 to 25 µM |
| CC(=O)N(CCOC1C(OC2C(O)C(N)CC(N)C2OC2OC(CO)C(O)C(O)C2N)OC(CO)C1OC1OC(CN)C(O)C(O)C1N)CCc1ccccc1 (stereo not shown) [Compound 11] | – | – | – | – | – | Kd ([1]; Example 106): 6100 nM; Kd ([2]; Example 106): 1500 nM; IC50 ([3]; Example 106): 400 nM; MIC E. Coli. (E. Coli; Example 106): 10 to 20 µM; MIC S. Aureus (S. Aureus; Example 106): 1 to 3 µM |
| NCC1OC(OC2C(CO)OC(OC3C(O)C(N)CC(N)C3OC3OC(CO)C(O)C(O)C3N)C2OCCNCc2ccccc2)C(N)C(O)C1O (stereo not shown) [Compound 9q] | 300 | 100 | 800 | 3 to 6 µM | 3 to 5 µM | – |
| CC(C)NCC1OC(OC2C(N)CC(N)C(O)C2OC2OC(CO)C(OC3OC(CN)C(O)C(O)C3N)C2O)C(N)C(O)C1O (stereo not shown) [Compound 15h] | – | – | – | – | – | Kd ([1]; Example 108): 1200 nM; Kd ([2]; Example 108): 1200 nM; IC50 ([3]; Example 108): 200 nM; MIC E. Coli. (E. Coli; Example 108): 2.5-5^ uM; MIC S. Aureus (S. Aureus; Example 108): 1.3 to 2.5 µM |
| NCC1OC(OC2C(CO)OC(OC3C(O)C(N)CC(N)C3OC3OC(CO)C(O)C(O)C3N)C2OCCNCc2ccnc(N)c2)C(N)C(O)C1O (stereo not shown) [Compound 9t] | 300 | 20 | 700 | 6 to 12 µM | 0.6-1^ uM | – |
| NCC1OC(OC2C(CO)OC(OC3C(O)C(N)CC(N)C3OC3OC(CO)C(O)C(O)C3N)C2OCCNC23CC4CC(CC(O)(C4)C2)C3)C(N)C(O)C1O (stereo not shown) [Compound 9w] | – | – | – | – | – | Kd ([1]; Example 106): 1700 nM; Kd ([2]; Example 106): 3200 nM; IC50 ([3]; Example 106): 400 nM; MIC E. Coli. (E. Coli; Example 106): 20 to 40 µM; MIC S. Aureus (S. Aureus; Example 106): 1 to 3 µM |
